Assay results reported in patent US20260144880A1 (priority 2018, published 2026).
Like-named read-outs stand apart in the source and are kept apart here.

Columns and labels:
[1] = tested on: Neuraminidase transfected HEK 293 cells
[2] = in vitro; conditions: human
[3] = tested on: influenza virus A/Puerto Rico/8/1934 (H1N1); type: in vivo, BALB/c mice; conditions: DNP-KLH immunized mice, 1.5 μmol/kg intranasally one time a day for five days, 100 LD50
[4] = tested on: 293NA cells (HEK 293 cells that express NA); type: cell-based
[5] = tested on: A/Aichi/2/1968 (HA, NA), x-31b (H3N2) virus; design: species or system mice; conditions: mouse, in vivo
[6] = tested on: A/Puerto Rico/8/34; design: species or system mice; conditions: mouse, in vivo, ip
[7] = tested on: A/Aichi/2/1968 (HA, NA), x-31b (H3N2) virus; design: species or system mice; conditions: mouse, in vivo, ip
[8] = tested on: Neuraminidase transfected HEK 293 cells; type: binding

Tubulysin B hydrazide
EC50 [1]: 9.9 nM

CCCC(=O)OCN(C(=O)[C@@H](NC(=O)[C@H]1CCCCN1C)C(C)CC)[C@H](C[C@@H](OC(C)=O)c1nc(C(=O)N[C@@H](Cc2ccc(O)cc2)C[C@H](C)C(=O)NNC(=O)OCCSSC[C@H](NC(=O)[C@H](CC(=O)O)NC(=O)[C@@H](N)CNC(=O)CCC(=O)N2Cc3ccccc3-c3c(nnn3CCOCCOCCOCCNC(=O)O[C@@H]([C@@H]3OC(C(=O)O)=C[C@H](NC(=N)N)[C@H]3NC(C)=O)[C@H](O)CO)-c3ccccc32)C(=O)O)cs1)C(C)C (stereo partly drawn)
reduction of cytotoxicity by blocking neuraminidase binding sites [1]: > 30 fold | EC50 [2]: 5.2 nM

CC(=O)N[C@H]1[C@H]([C@H](O)[C@H](O)CO)OC(C(=O)O)=C[C@@H]1N=C(N)N [zanamivir]
survival (protection from lethal virus challenge) [3]: 60% | % of killing (LDH) [4]: no killing | protection 14 days post infection [5]: does not provide the same protection | protection 14 days post infection [6]: does not provide the same protection | protection 14 days post infection [7]: does not provide the same protection | Kd [8]: ~0.77 nM
